In patent US20260146232A1, “METHODS FOR PROMOTING HOMING AND ENGRAFTMENT OF HEMATOPOIETIC STEM CELLS” (The Trustees of Indiana University, priority 2022, published 2026):

Key:
[1] = test system: human CB CD34+ cells; assay: Homing assay of treated human CB CD34+ cells in NSG mice; format: in vivo; settings: 500,000 cells
Protocol: Homing assay. Homing of human CB CD34^+ cells was evaluated in NSG mice. Molecular compounds treated or siRNA transfected human CB CD34+ cells (500,000 for each mouse) were intravenously injected into sub-lethally irradiated (350 cGy) NSG mice. After 24 h, these recipient mice were sacrificed, BM cells from each mouse were collected. Cells were stained with anti-human CD45 antibody, then resuspended in 1% formaldehyde buffer. Flow cytometry analysis was performed to determine the percentage of human CD45^+ cells. BM cells from non-transplanted NSG mice served as negative controls.

[2] = test system: human CB CD34+ cells; assay: Chemotaxis (transwell migration) assay toward SDF-1, CB CD34+ cells; format: cell-based
Protocol: (§1) Chemotaxis assay. Chemotaxis assays were performed in Costar 24-well trans-well plates with 6.5 mm diameter inserts with 5.0 μm pores (Corning, NY, USA). Briefly, 650 μL of IMDM medium (37° C.) that contained 0.5% bovine serum albumin (Sigma-Aldrich) and SDF-1 (0, 50 ng/mL) was added to the bottom well. Cells were suspended at 1×10^5 cells/100 μL in IMDM medium and loaded to the upper chamber of the trans-well. Trans-well plates were placed in a 37° C. incubator with 95% humidity and 5% CO2 for 4 hours. Percent migration was measured using flow cytometry with number of cells in the bottom chamber divided by number of cells placed in the upper chamber. To calculate the percent migration of CB HSCs, phenotypic HSCs was determined by surface staining and flow cytometry analysis. Human CB HSC chemotaxis was calculated as number of HSCs in the bottom chamber divided by number of HSCs loaded in the upper chamber. For AMD3100 administration, cells were treated with 5 μg/mL AMD3100 (239820, Sigma-Aldrich) for 30 min right before the chemotaxis assay.

[3] = test system: phenotypic HSC (CD34+ CD38- CD45RA- CD90+ CD49f+); assay: Chemotaxis (transwell migration) assay toward SDF-1, phenotypic HSCs; format: cell-based, human
Protocol: as §1

[4] = test system: m6A labelled CXCR4; assay: m6A enrichment on CXCR4 (m6A IP combined with RT-qPCR); format: cell-based, human
Protocol: M6A-RNA Immunoprecipitation. MeRIP analysis was used as previously described^15. Briefly, the total RNAs were extracted, and then RNA concentration was adjusted to 1 μg/μl. RNA was fragmented into ˜100 nt size and these RNA were immunoprecipitated with the anti-m6A antibody according to the standard protocol of the Magna MeRIP m6A Kit (Merck Millipore, 17-10499). M6A enrichment was determined by qPCR analysis.

[5] = test system: CXCR4; assay: CXCR4 RNA level in human CB CD34+ cells; format: cell-based; settings: YTHDF2 knockdown by siRNA
Protocol: RNA extraction and real-time PCR. After cells were harvested by FACS, RNA was extracted by a RNeasy Mini Kit following manufacturer's protocol (Qiagen, 74106). Total RNA was reverse-transcribed by use of Superscript III kit (ThermoFisher, 18080093). Quantitative real-time PCR reactions were performed by SYBR Green PCR Master Mix (Thermo Fisher, Florence, KY, USA) and an Agilent Mx3000P QPCR System. Expression of housekeeping gene GAPDH was used as an internal control. Data are shown as relative mRNA level normalized to levels in vehicle control, set to 1. SEQ ID NO: 1-16 are the primer sequences utilized.

[6] = test system: YTHDF2; assay: Relative YTHDF2 expression level in human CB CD34+ cells; format: cell-based; settings: siRNA 2 μM electroporated into human CB CD34+ cells
Text: (§2) Human CD34^+ CB cell collection and culture. Umbilical CB units were supplied by Cleveland Cord Blood Bank and CordUse, Orlando, FL, USA. All studies were approved by the institutional review board of the IUSM. Mononuclear cells were isolated by density gradient centrifugation and CD34^+ cells were isolated by immunomagnetic selection kit (Miltenyi Biotec, 130-046-702). […] For molecular compound treatment, all reagents were ordered from Cayman Chemical (Ann Arbor, MI, USA). Briefly, molecular compounds were added in the initiation of human CB CD34^+ cells culture, the time and concentration of each molecular compound for cell treatment was shown in figure legends.
RNA extraction and real-time PCR. After cells were harvested by FACS, RNA was extracted by a RNeasy Mini Kit following manufacturer's protocol (Qiagen, 74106). Total RNA was reverse-transcribed by use of Superscript III kit (ThermoFisher, 18080093). Quantitative real-time PCR reactions were performed by SYBR Green PCR Master Mix (Thermo Fisher, Florence, KY, USA) and an Agilent Mx3000P QPCR System. Expression of housekeeping gene GAPDH was used as an internal control. Data are shown as relative mRNA level normalized to levels in vehicle control, set to 1.

[7] = test system: YTHDF2 and CXCR4; assay: YTHDF2 binding level of CXCR4 (YTHDF2 RIP combined with RT-qPCR); format: cell-based, human
Protocol: RNA immunoprecipitation. RNA immunoprecipitation was performed as previously described^14. Briefly, 0.5-1×10^6 collected human CD34^+ cells were lysed in buffer A (20 mM Tris-Cl, pH 8.0; 100 mM NaCl, 1 mM EDTA, 0.5% NP-40, protease and RNase inhibitors) for 20 min at 4° C. After centrifugation for 5 min, 1/10th volume of cell lysate was saved as input. Anti-YTHDF2 (Abcam, ab220163) was prebound to the protein A/G beads and then reacted with the rest of the cell lysate overnight at 4° C. After elution from the beads, the RNA samples were precipitated with ethanol and dissolved in RNase-free water. RNAs were further purified with RNA Clean and Concentrator-5 (Zymo, R1013). The relative CXCR4 enrichment was determined by calculating the Ct values of the RIP sample relative to the input sample. Expression of non-m6a housekeeping gene ACTB was used as an internal control. Data are shown as relative binding level normalized to levels in sh-Control group, set to 1.

[8] = test system: human CB CD34+ cells; assay: Long-term engraftment / limiting dilution analysis (LDA) in NSG mice; format: in vivo
Protocol: Limiting dilution analysis (LDA). Frequency of human SCID repopulating cells (SRCs) was determined by LDA as reported before. Increasing doses of GFP overexpressing CD34^+ cells (2500, 5000 or 10000 cells) were intravenously injected into sublethally irradiated NSG recipient mice (350 cGy; 137Cs source, single dose). Four months after transplantation, the percentage of GFP^+ human CD45^+ cell chimerism was analyzed by immunostaining and flow cytometry. For long-term engraftment assays that assess the self-renewal capacity of HSC, 3×10^6 BM cells from primary recipients of the 10000-cell group were intravenously transplanted into secondary sub-lethally irradiated NSG recipient mice.

[9] = test system: CXCR4; assay: Surface CXCR4 protein level (MFI) by flow cytometry; format: cell-based, human; settings: for CXCR4 protein level: siRNA knockdown
Text: as §2
Flow cytometry. Fresh or cultured CB cells were sorted for different phenotypes by using the following antibodies. Antibodies were used to detect CD34 (BV786, BD Biosciences, 744741), CD34 (FITC, BD Biosciences, 340668), CD45RA (Taxe-red, BD Biosciences, 562298), CD90 (BV421, BD Biosciences, 562556), CD49f (cy5.5, BD Biosciences, 562495), CD38 (PE, BD Biosciences, 560981). CD3 (BV421, BD Biosciences, 562427), CD33 (PE, BD Biosciences, 555450), CD19 (PE, BD Biosciences, 555413), CXCR4 (APC, BD Biosciences, 555976) and CD45 (APC, BD Biosciences, 555485). Gating strategy of phenotypic HSCs were shown in supplementary FIG. 2B.

[10] = test system: CB CD34+ cells; assay: Colony-forming unit (CFU) assay; format: cell-based, human; settings: AGII-treated CB CD34+ cells
[11] = test system: FTO; assay: Relative FTO expression level by realtime PCR; format: cell-based; settings: AGII 4 μM, 20 hours, human CB CD34+ cells
Protocol: Human CD34^+ CB cell collection and culture. Umbilical CB units were supplied by Cleveland Cord Blood Bank and CordUse, Orlando, FL, USA. All studies were approved by the institutional review board of the IUSM. Mononuclear cells were isolated by density gradient centrifugation and CD34^+ cells were isolated by immunomagnetic selection kit (Miltenyi Biotec, 130-046-702). The purity of human CD34^+ CB cells was over 90% and the cells were cultured in StemSpanII serum-free medium ([…] Technologies, 09650) supplemented with 100 ng/mL stem cell factor (SCF), 100 ng/mL FMS-like tyrosine kinase 3 ligand (Flt3L) and 100 ng/mL thrombopoietin (TPO). For molecular compound treatment, all reagents were ordered from Cayman Chemical (Ann Arbor, MI, USA). Briefly, molecular compounds were added in the initiation of human CB CD34^+ cells culture, the time and concentration of each molecular compound for cell treatment was shown in figure legends.
RNA extraction and real-time PCR. After cells were harvested by FACS, RNA was extracted by a RNeasy Mini Kit following manufacturer's protocol (Qiagen, 74106). Total RNA was reverse-transcribed by use of Superscript III kit (ThermoFisher, 18080093). Quantitative real-time PCR reactions were performed by SYBR Green PCR Master Mix (Thermo Fisher, Florence, KY, USA) and an Agilent Mx3000P QPCR System. […]

[12] = AGII-treated human CB CD34+ cells

For “5′-TTGGCTATTGGGAACGTCCTT-3′ (partner strand not given here) [siRNA]”, the “human CB CD34+ cell homing in NSG mice” value ([1]; siRNA transfected, 24 hours) was “enhanced”, the “migration of CB CD34+ cells to SDF-1” value ([2]; siRNA transfected cells) was “significant migration” and the “migration to SDF-1 in the HSC population” value ([3]; siRNA transfected cells, SDF-1 50 ng/mL) was “Enhanced migration”. For the same substance, the “expression level of m6A labelled CXCR4” value ([4]; YTHDF2 knockdown by siRNA) was “greatly increased”, the “RNA level of CXCR4” value [5] was “significantly upregulated” and the “YTHDF2 expression at the RNA and protein level” value [6] was “efficiently downregulated”. For the same substance, the “binding level of YTHDF2 and CXCR4” value ([7]; YTHDF2 knockdown by siRNA) was “significantly decreased”, the “engraftment in secondary NSG mice” value ([8]; BM cells from siRNA transfected group) was “enhanced engraftment” and the “increase in number of functionally detectable SRCs compared with control” value ([8]; siRNA transfected group) was about 4 fold. For the same substance, the “SRC frequency (Poisson distribution analysis)” value ([8]; siRNA transfected group, control 1/2439) was 1/667, the “number of SRCs” value ([8]; siRNA transfected group, control 410) was 1478 SRCs in 1×10^6 cells and the “human myeloid and B-cell chimerism” value ([8]; siRNA transfected, BM 4 months) was “significantly increased”. For the same substance, the “engraftment vs control group” value ([8]; siRNA transfected, PB at 2 and 4 months, BM at 4 months) was “enhanced engraftment”, the CXCR4 protein level ([9]; HSCs (CD34+ CD38- CD45RA- CD49f+ CD90+)) was “notably upregulated” and the CXCR4 protein level ([9]; human CB CD34+ cells) was “notably upregulated”.
With “Angiotensin II [AGII, peptide hormone of the RAAS system]” the “homing to mouse BM” value ([1]; 20 hours AGII treatment, 24 h after transplantation) was “dramatically promoted”, the “human CB CD34+ cell migration toward graded doses of SDF-1” value ([2]; AGII-treated cells) was “greatly enhanced” and the “colony output vs vehicle” value [10] was “no significant difference”. The “chemotaxis to SDF-1 of HSCs” value ([3]; AGII-treated cells) was “greatly enhanced”, the FTO expression [11] was “significantly upregulated” and the “relative m6A labeled CXCR4 level” value [4, 12] was “decreased”. For the same substance, the “binding between YTHDF2 and CXCR4” value [7, 12] was “decreased”, the “engraftment in NSG recipients vs control” value ([8]; AGII-treated cells, 10,000 cells, PB and BM) was “significantly increased” and the “human myeloid and lymphoid cell chimerism” value ([8]; AGII-treated cells, BM 4 months) was “increased”. The “SRC frequency (Poisson distribution analysis)” value ([8]; AGII-treated cells, control 1/3984) was 1/1280, the “number of SRCs” value ([8]; AGII-treated cells, control 251) was 781 SRCs and the “engraftment in secondary transplantation vs control” value ([8]; AGII-treated cells, secondary NSG mice at 4 months) was “enhanced engraftment”. The “protein level of CXCR4” value ([9]; AGII-treated vs vehicle) was “upregulates”.
